How the values were obtained:
[1] = Surface tension measurement, Nouy ring method; type: physicochemical; settings: 20 ml aliquot, Kruss Model K 10 ST; liquid carrier tetrafluoropropanol, no coating moiety
Description: Samples of coating solution (Examples 8, 9, 10, and 11) were prepared by blending in a vessel a measured volume of a liquid carrier (tetrafluoropropanol) and a fluorocarbon surface tension-reducing agent (1,1,1,3,3-pentafluoropropane, HFC245fa) to give the Vol. % compositions indicated in Table 3, below.
Surface tension was measured using the Nouy ring method and a Kruss Instrument Model K 10 ST.
In a typical determination, a 20 ml aliquot of the liquid to be tested was placed in the instrument and the surface tension was measured by the published procedure described above. Measurements were carried out for neat tetrafluropropanol (a liquid carrier, Table 3, Comparative Example #3), neat 1,1,1,3,3-pentafluropropane (HFC245fa, as a fluorocarbon surface tension-reducing agent, Table 3, Example # 11), and coating solution formulations (sans a coating moiety) comprising mixtures of tetrafluropropanol with 25 Vol. %, 50 Vol. %, and 75 Vol. % 1,1,1,3,3-pentafluropropane (Table 3, Examples 8, 9 and 10 respectively).

[2] = type: physicochemical
Description: Coating solvent was prepared by blending in a vessel a measured volume of a liquid carrier (tetrafluoropropanol) and as a surface tension-reducing agent 1,1,1,3,3-pentafluoropropane (HFC245fa) to give a solvent having the constituent volumetric ratios shown in Table I, below.
Solubility was determined by adding dye powder slowly to a weighed 100 ml aliquot of the coating solvent in a vessel. The solvent was stirred to dissolve the dye. When no more dye would dissolve, the dye addition was stopped and the solvent reweighed to determine the amount of dye that had been dissolved in the solvent.

Molecule	Surface Tension [1] [mN/m]	Dye A Solubility [2] [g/100 ml]	Dye B Solubility [2] [g/100 ml]
FC(F)CC(F)(F)F [Example # 11, 1,1,1,3,3-pentafluropropane]	18		
Tetrafluoropropanol [compound 1]		10.7	11.3

From patent US20040063843A1, “Coating solutions” (Honeywell International, Inc., priority 2002, published 2004)
